Data from paper PMC8742467, “Therapeutical interference with the epigenetic landscape of germ cell tumors: a comparative drug study and new mechanistical insights” (Clinical Epigenetics, 2022).

Experiments:
[1] = system: CC (choriocarcinoma) cell lines JAR, JEG-3, BeWo; experiment: XTT cell viability assay, CC cell lines; assay type: cell-based; settings: Homo sapiens; after 48 h, mean per entity
Protocol: (§1) The […] (XTT) assays were performed as described previously. In summary, for GCT and fibroblast cell lines 5 × 10^3 cells (3 × 10^3 for UC, PCa and RCC cell lines) per 96-well were seeded and different drug concentrations (see Additional file 2: Fig. S2, Additional file 3: Fig. S3) or corresponding solvents were added to the cells the following day. For drug details see Additional file 12: Table S2 C. Each condition was analyzed in four technical replicates and EC50 values were calculated by GraphPad Prism v8.

[2] = system: urothelial carcinoma (UC) cell lines; experiment: XTT cell viability assay, UC cell lines; assay type: cell-based, Human
Protocol: as §1

[3] = system: prostate cancer (PCa) cell lines; experiment: XTT cell viability assay, PCa cell lines; assay type: cell-based, Human
Protocol: as §1

[4] = system: renal cell carcinoma (RCC) cell lines; experiment: XTT cell viability assay, RCC cell lines; assay type: cell-based
Protocol: as §1

GCT cells = experiment: Flow cytometry cell cycle (PI), GCT cells; assay type: cell-based, Human; settings: EC50, 16 h
Protocol: (§2) For Annexin V/PI staining, cells were washed with Annexin V Binding Buffer before being resuspended in 70 µl Annexin V Binding Buffer and 2.5 μl Annexin V FITC-conjugate (both Miltenyi Biotec, Bergisch Gladbach, Germany) and 15 µg PI (Sigma-Aldrich, Taufkirchen, Germany) and incubated in the dark at room temperature for 15 min. 500 µl of Annexin V Binding Buffer was added before measurement. For the cell cycle analysis, cells were washed with PBS (phosphate buffered saline), fixed by ice cold 70% ethanol and stained with 2 µg/ml PI and 200 µg/ml RNaseA (Quiagen, Hilden, Germany 100 mg/ml) in PBS shortly before every measurement. At least 5 × 10^4 cells were counted and analyzed using the MACSQuant software v 2.13.0.

2102EP-R = experiment: Flow cytometry apoptosis (Annexin V/PI), 2102EP-R; assay type: cell-based, Human; settings: EC50, 16 h, compared to the parental cell line
fibroblast control cells = experiment: Flow cytometry apoptosis (Annexin V/PI), fibroblasts; assay type: cell-based, Human; settings: EC50, 16 h
Protocol: as §2

[5] = system: H2AK119ub in 2102EP cells; experiment: Western blot of histone extracts; assay type: cell-based, Human; settings: after 48 h of treatment
Protocol: Western Blots were performed as described previously. In total, 20 µg of whole cell protein lysates or 3 µg of histone extract were used for western blotting. β-Actin was used as housekeeper and loading control for whole cell lysates. Western blots of histone extracts were stained with Coomassie Brilliant Blue R 250 (Roth, Karlsruhe, Germany) and total H3 or H4 antibody to verify equal loading. For antibody details, see supplement (Additional file 12: Table S2 D). The ChemiDoc Imaging System (Bio-Rad Laboratories, Feldkirchen, Germany) was used for detection. Pixel density was analyzed using the ‘Image Lab’ software provided by Bio-Rad.

CC (JAR) = experiment: Flow cytometry apoptosis (Annexin V/PI), CC; assay type: cell-based, Human; settings: EC50, 16 h
Protocol: as §2

YST (GCT72) = experiment: Flow cytometry apoptosis (Annexin V/PI), YST; assay type: cell-based, Human; settings: EC50, 16 h
Protocol: as §2

[6] = Homo sapiens, 48 h, mean of three cell lines
[7] = Homo sapiens; mean of three cell lines, 48 h

Compound `Cn1cc(CNCC2CCN(c3ncc(C(=O)NO)cn3)CC2)c2ccccc21` [Quisinostat] has an EC50 [1] of 6.94 nM, an EC50 [2, 6] of 17.2 nM and an EC50 ([2]; mean of three cell lines, 48 h) of 17.2 nM. It also gave an EC50 [3, 6] of 22.2 nM, an EC50 ([3]; mean of three cell lines, 48 h) of 22.2 nM and an EC50 [4, 6] of over 50 nM. The “cell cycle phase accumulation in GCT cells” value (GCT cells) was “accumulation in the G2/M phase”.

`CN1C(=O)[C@@]23C[C@]4([C@]56C[C@@]78SS[C@@](CO)(C(=O)N7[C@H]5Nc5ccccc56)N(C)C8=O)c5ccccc5N[C@@H]4N2C(=O)[C@]1(CO)SS3` [Chaetocin] gave an EC50 [2, 7] of 99.6 nM, an EC50 [3, 7] of 233 nM and an EC50 [4, 7] of 156 nM. The “apoptosis induction in 2102EP-R” value (2102EP-R) was “did not induce apoptosis” and the “cell cycle phase accumulation in GCT cells” value (GCT cells) was “accumulation in the G2/M phase”.

For `O=C1C(=Cc2cccnc2)C(=O)c2ccccc21` [PRT4165], the “apoptosis induction in fibroblast control cells” value (fibroblast control cells) was “only a weak apoptosis induction” and the “H2AK119ub by western blot” value [5] was “decreased H2AK119ub”.

For `CCCc1cc(C)[nH]c(=O)c1CNC(=O)c1cc(-c2ccnc(N3CCN(C)CC3)c2)cc2c1cnn2C(C)C` [GSK343], the EC50 [1] was 10400 nM, the “apoptosis induction in JAR” value (CC (JAR)) was “negligible” and the “apoptosis induction in GCT72” value (YST (GCT72)) was “negligible”. For the same compound, the “apoptosis induction in 2102EP-R” value (2102EP-R) was “did not induce apoptosis”.
